Results: patent publication US20220009914A1, “Analogs of Nitrofuran Antibiotics to Combat Resistance” (The Trustees of Indiana University, priority 2020, published 2022)
Like-named read-outs stand apart in the source and are kept apart here.

Assays:
E. coli GroEL = biological target: T1, E. coli GroEL (Escherichia coli, UniProt P0A6F5); experiment: GroEL-mediated ATPase assay; assay type: biochemical
T1 construct: made in house; host or cells: NEB 5-alpha E. coli
Protocol: Evaluating compounds for inhibition in the GroEL-mediated ATPase assay. All compounds were evaluated for inhibiting E. coli GroEL-mediated ATPase activity as per our previously reported procedure although employing only GroEL in solution and not containing GroES or denatured MDH. Evaluating compounds for inhibition in the GroEL-mediated ATPase assay.
Reagent preparation: For this assay, four primary reagent solutions were prepared: 1) GroEL protein solution; 2) ATP initiation solution; 3) EDTA quench solution; 4) malachite green reporter solution. The GroEL protein solution consisted of 100 nM of GroEL in folding buffer (50 mM Tris-HCl, pH 7.4, 50 mM KCl, 10 mM MgCl2, and 1 mM DTT), which was prepared immediately prior to dispensing into the assay plates. For the ATP initiation solution, ATP solid was diluted into folding buffer to a final concentration of 2 mM. Quench solution contained 300 mM EDTA (pH 8.0). The malachite green reporter solution contained 0.034% w/v malachite green, 1.04% w/v ammonium molybdate, 1% Tween-20, and 1 M HCl dissolved in H2O.
Assay Protocol: First, 10 μL aliquots of the GroEL protein solution were dispensed into clear, flat-bottom 384-well polystyrene plates. […] After incubating for 45 minutes at 37° C., 10 μL of the EDTA quench solution was added to quench the reaction cycle. Then, 60 μL of the malachite green reporter solution was added and the plates were incubated at room temperature for 10 min. The absorbance of the malachite green-phosphate complex was measured at 600 nm using a Molecular Devices SpectraMax Plus384 microplate reader. A second set of baseline control plates were prepared analogously, but without GroEL protein solution, to correct for possible interference from compound absorbance or turbidity. […] Results presented represent the averages of IC50 values obtained from at least four replicates.
Evaluating analogs for inhibiting GroEL-mediated ATPase activity. […] Thus, we further tested analogs in a well-established GroEL ATPase assay that employed malachite green to monitor inorganic phosphate liberated as GroEL hydrolyzed ATP. Briefly, a solution of GroEL was incubated with test compounds (8-point, 3-fold dilution series) and the assay was initiated by addition of ATP. After incubating for 45 minutes, the ATPase reaction was quenched by the addition of EDTA. Malachite green was then added to the assay to bind and detect free phosphates in solution (absorbance detection at k=600 nm). If analogs inhibited ATPase activity, then there would be no free phosphates for malachite green to bind, leading to minimal absorbance at 600 nm.

native MDH = biological target: T2, native MDH (Sus scrofa, UniProt P00346); experiment: native MDH enzymatic activity counter-screen; assay type: biochemical, pig
T2 sequence (P00346 25-338): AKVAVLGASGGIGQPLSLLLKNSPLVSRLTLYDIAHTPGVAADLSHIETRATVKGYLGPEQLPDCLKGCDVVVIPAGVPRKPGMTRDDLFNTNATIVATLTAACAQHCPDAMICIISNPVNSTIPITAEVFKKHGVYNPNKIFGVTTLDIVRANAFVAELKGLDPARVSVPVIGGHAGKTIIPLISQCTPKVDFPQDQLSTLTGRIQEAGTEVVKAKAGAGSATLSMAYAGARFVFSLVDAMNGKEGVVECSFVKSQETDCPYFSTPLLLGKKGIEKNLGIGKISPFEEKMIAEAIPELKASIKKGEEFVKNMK
Protocol: Reagent Preparations & Assay Protocol: This assay was performed as described above for the GroEL/ES-dMDH refolding assay; however, the assay protocol differed in the sequence of compound addition to the assay plates. The refolding reactions were allowed to proceed for 45 min at 37° C. in the absence of test compounds (complete refolding of MDH occurs), then quenched with the EDTA stock. Compounds were then pin-transferred into the plates after the EDTA quenching step; thus, compound effects are only possible by inhibiting the fully-refolded MDH reporter substrate. […] A340 nm measurements were recorded at 0.5 minutes (start point) and at successive time points until the amount of NADH consumed reached ˜90% (end point, generally between 20-35 minutes). Compounds were tested in 8-point, 3-fold dilution series (62.5 μM to 29 nM during the reporter reaction) in clear, flat-bottom 384-well microtiter plates. IC50 values for the MDH reporter enzyme were determined as described above. Results presented represent the averages of IC50 values obtained from at least five replicates.
Evaluating analogs for inhibiting GroEL/ES-mediated substrate refolding functions. […] We first evaluated all test compounds in our standard GroEL/ES-mediated refolding assays that employ either malate dehydrogenase (MDH) or rhodanese (Rho) as the denatured substrate reporter enzymes. When denatured, these enzymes are efficiently folded by GroEL/ES in the absence of inhibitors, and thus act as reporters to determine the degree of inhibition against the bacterial chaperonin system. Inhibition was examined in the presence of these two orthogonal substrates in order to support that GroEL/ES inhibitors were on-target. To further support on-target effects against GroEL/ES, we counter-screened for inhibition of the native MDH and Rho enzymatic reporter reactions, where test compounds were added after the denatured MDH and Rho substrate enzymes were completely refolded by GroEL/ES.

[1] = without NfsB nitroreductase, compounds added after refolding, read-out: Native MDH Activity IC50

T1 sequence (P0A6F5 2-548): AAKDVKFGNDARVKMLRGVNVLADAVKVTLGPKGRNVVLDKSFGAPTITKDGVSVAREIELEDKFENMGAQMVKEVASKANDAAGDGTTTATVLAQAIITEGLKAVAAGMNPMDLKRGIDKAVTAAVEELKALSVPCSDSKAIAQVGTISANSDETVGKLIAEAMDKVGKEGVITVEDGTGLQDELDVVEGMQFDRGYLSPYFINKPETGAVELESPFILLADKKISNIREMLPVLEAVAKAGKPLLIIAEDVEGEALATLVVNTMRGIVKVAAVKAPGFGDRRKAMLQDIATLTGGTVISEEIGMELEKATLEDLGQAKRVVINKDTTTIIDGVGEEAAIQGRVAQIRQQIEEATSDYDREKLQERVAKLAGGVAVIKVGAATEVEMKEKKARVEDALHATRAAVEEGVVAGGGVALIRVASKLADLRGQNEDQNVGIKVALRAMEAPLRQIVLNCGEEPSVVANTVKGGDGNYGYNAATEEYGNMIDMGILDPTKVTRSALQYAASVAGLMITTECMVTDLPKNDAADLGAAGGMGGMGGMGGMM

CCN(CC)S(=O)(=O)c1cccc(C(=O)N/N=C/c2ccc(O)c3ncccc23)c1 [Compound 12, N,N-diethyl-3-(2-((8-hydroxyquinolin-5-yl)methylene)hydrazine-1-carbonyl)benzenesulfonamide]
IC50 (E. coli GroEL): > 250 µM
IC50 (native MDH; [1]): > 63 µM

O=Cc1ccc([N+](=O)[O-])o1 [Compound 41, reference compound]
IC50 (E. coli GroEL): > 250 µM
IC50 (native MDH; [1]): > 63 µM

O=C(N/N=C/c1ccc(O)c2ncccc12)c1ccc(Cl)s1 [Compound 4, 5-chloro-N′-((8-hydroxyquinolin-5-yl)methylene)thiophene-2-carbohydrazide]
IC50 (E. coli GroEL): > 250 µM
IC50 (native MDH; [1]): > 63 µM

O=C(N/N=C/c1ccc(O)c2ccccc12)c1ccccc1 [Compound 30, N′-((4-hydroxynaphthalen-1-yl)methylene)benzohydrazide]
IC50 (E. coli GroEL): > 250 µM
IC50 (native MDH; [1]): > 63 µM

COc1ccc(C(=O)N/N=C/c2cccc3ncccc23)cc1 [Compound 31, 4-methoxy-N′-(quinolin-5-ylmethylene)benzohydrazide]
IC50 (E. coli GroEL): > 250 µM
IC50 (native MDH; [1]): > 63 µM

COc1ccc(C(=O)N/N=C/c2cccc3ccccc23)cc1 [Compound 33, 4-methoxy-N′-(naphthalen-1-ylmethylene)benzohydrazide]
IC50 (E. coli GroEL): > 250 µM
IC50 (native MDH; [1]): > 63 µM

O=C(N/N=C/c1ccccc1)c1ccccc1 [Compound 38, N′-benzylidenebenzohydrazide]
IC50 (E. coli GroEL): > 250 µM
IC50 (native MDH; [1]): > 63 µM

O=C(N/N=C/c1ccc([N+](=O)[O-])o1)c1cccc(Oc2ccccc2)c1 [Compound 24, N′-((5-nitrofuran-2-yl)methylene)-3-phenoxybenzohydrazide]
IC50 (E. coli GroEL): > 250 µM
IC50 (native MDH; [1]): > 63 µM

O=C(N/N=C/c1ccc(O)c2ncccc12)c1ccc(O)cc1 [Compound 7, 4-hydroxy-N′-((8-hydroxyquinolin-5-yl)methylene)benzohydrazide]
IC50 (E. coli GroEL): > 250 µM
IC50 (native MDH; [1]): > 63 µM

O=C(N/N=C/c1ccc([N+](=O)[O-])o1)c1cccc2ccccc12 [Compound 22, N′-((5-nitrofuran-2-yl)methylene)-1-naphthohydrazide]
IC50 (E. coli GroEL): > 250 µM
IC50 (native MDH; [1]): > 63 µM

O=C(N/N=C/c1cccc2ccccc12)c1ccccc1 [Compound 34, N′-(naphthalen-1-ylmethylene)benzohydrazide]
IC50 (E. coli GroEL): > 250 µM
IC50 (native MDH; [1]): > 63 µM

O=C(N/N=C/c1ccc([N+](=O)[O-])o1)c1ccc(O)cc1 [Nifuroxazide, reference compound]
IC50 (E. coli GroEL): > 250 µM
IC50 (native MDH): > 63 µM

COc1ccc(C(=O)N/N=C/c2ccco2)cc1 [Compound 39, N′-(furan-2-ylmethylene)-4-methoxybenzohydrazide]
IC50 (E. coli GroEL): > 250 µM
IC50 (native MDH; [1]): > 63 µM

O=C(N/N=C/c1ccc([N+](=O)[O-])o1)c1ccc(NS(=O)(=O)c2ccc(Br)cc2)cc1 [Compound 27, 4-bromo-N-(4-(2-((5-nitrofuran-2-yl)methylene)hydrazine-1-carbonyl)phenyl)benzenesulfonamide]
IC50 (E. coli GroEL): > 250 µM
IC50 (native MDH): > 63 µM

O=C(N/N=C/c1ccc(O)c2ncccc12)c1ccccc1Oc1ccccc1 [Compound 10, N′-((8-hydroxyquinolin-5-yl)methylene)-2-phenoxybenzohydrazide]
IC50 (E. coli GroEL): > 250 µM
IC50 (native MDH; [1]): > 63 µM
